In patent US12077503B2, “Substituted cyclic amides and their use as herbicides” (FMC CORPORATION, priority 2015, dated 2024):
Read-outs that look alike come from different tables or passages of the source.

What was measured:
Format in all cases: in vivo
[1] = tested on: blackgrass (Alopecurus myosuroides); test: Test A postemergence; details: Alopecurus myosuroides, post-emergence, 240 h; for pest or weed control at 125 g/ha: 125 g ai/ha, postemergence
Method in brief: (§1)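 Seeded soil received test chemicals as a preemergence directed spray, and seedlings at one to two leaves, 2–10 cm tall, received them postemergence, in a non-phytotoxic, surfactant-containing solvent mixture. Pots were held in a greenhouse for approximately 10 d, then rated for injury from 0, no effect, to 100, complete control.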

[2] = tested on: wheat (Triticum aestivum); test: Test A postemergence; details: Triticum aestivum, post-emergence, 240 h; for plant injury at 125 g/ha: 125 g ai/ha, postemergence
Method in brief: as §1

[3] = tested on: Galium (catchweed bedstraw, Galium aparine); test: Test A postemergence; details: Galium, post-emergence, 240 h; for pest or weed control at 125 g/ha: 125 g ai/ha, postemergence
Method in brief: as §1

Kochia (Kochia scoparia) [4] = test: Test A postemergence; details: Bassia scoparia, post-emergence, 240 h; for pest or weed control at 125 g/ha: 125 g ai/ha, postemergence
Method in brief: as §1

corn (Zea mays) = test: Test A postemergence; details: Zea mays, post-emergence, 240 h
Method in brief: as §1

[5] = tested on: giant foxtail (Setaria faberii); test: Test A postemergence; details: Setaria faberi, post-emergence, 240 h; for pest or weed control at 125 g/ha: 125 g ai/ha, postemergence
Method in brief: as §1

[6] = tested on: pigweed (Amaranthus retroflexus); test: Test A postemergence; details: Amaranthus retroflexus, post-emergence, 240 h; for pest or weed control at 125 g/ha: 125 g ai/ha, postemergence
Method in brief: as §1

[7] = tested on: ragweed (common ragweed, Ambrosia elatior); test: Test A postemergence; details: Ambrosia artemisiifolia, post-emergence, 240 h; for pest or weed control at 125 g/ha: 125 g ai/ha, postemergence
Method in brief: as §1

[8] = tested on: barnyardgrass (Echinochloa crus-galli); test: Test A postemergence; details: Echinochloa crus-galli, post-emergence, 240 h; for pest or weed control at 125 g/ha: 125 g ai/ha, postemergence
Method in brief: as §1

Kochia (Kochia scoparia) [9] = test: Test A preemergence; details: Bassia scoparia, pre-emergence, 240 h, read-out: Plant response rating, Kochia; for pest or weed control at 125 g/ha: 125 g ai/ha, visual rating after approx. 10 d, 0 to 100 scale where 0 is no effect and 100 is complete control
Method in brief: as §1

[10] = tested on: giant foxtail (Setaria faberii); test: Test A preemergence; details: Setaria faberi, pre-emergence, 240 h, read-out: Plant response rating, Foxtail, Giant; for pest or weed control at 125 g/ha: 125 g ai/ha, visual rating after approx. 10 d, 0 to 100 scale where 0 is no effect and 100 is complete control
Method in brief: as §1

[11] = tested on: pigweed (Amaranthus retroflexus); test: Test A preemergence; details: Amaranthus retroflexus, pre-emergence, 240 h, read-out: Plant response rating, Pigweed; for pest or weed control at 125 g/ha: 125 g ai/ha, visual rating after approx. 10 d, 0 to 100 scale where 0 is no effect and 100 is complete control
[12] = tested on: ragweed (common ragweed, Ambrosia elatior); test: Test A preemergence; details: Ambrosia artemisiifolia, pre-emergence, 240 h, read-out: Plant response rating, Ragweed; for pest or weed control at 125 g/ha: 125 g ai/ha, visual rating after approx. 10 d, 0 to 100 scale where 0 is no effect and 100 is complete control
Method in brief: as §1

[13] = tested on: ryegrass, Italian (Italian ryegrass, Lolium multiflorum); test: Test A preemergence; details: Lolium multiflorum, pre-emergence, 240 h, read-out: Plant response rating, Ryegrass, Italian; for pest or weed control at 125 g/ha: 125 g ai/ha, visual rating after approx. 10 d, 0 to 100 scale where 0 is no effect and 100 is complete control
Method in brief: as §1

[14] = tested on: barnyardgrass (Echinochloa crus-galli); test: Test A preemergence; details: Echinochloa crus-galli, pre-emergence, 240 h, read-out: Plant response rating, Barnyardgrass; for pest or weed control at 125 g/ha: 125 g ai/ha, visual rating after approx. 10 d, 0 to 100 scale where 0 is no effect and 100 is complete control
Method in brief: as §1

[15] = Preemergence, 31 g ai/ha, 0 to 100 scale (0 no effect, 100 complete control)
[16] = 500 g ai/ha, preemergence, 0 to 100 scale, 0 = no effect, 100 = complete control

Structure (SMILES): CSc1ccccc1NC(=O)[C@H]1C(=O)N(C)CC[C@@H]1c1cccc(OC(F)(F)F)c1 [Compound 809]
- pest or weed control at 125 g/ha ([1]; visual injury rating after approximately 10 d, read-out: Blackgrass plant response rating (0 to 100 scale, 0 no effect, 100 complete control)): 0%
- pest or weed control at 31 g/ha ([1]; Postemergence, 31 g ai/ha, visual injury after approx. 10 d, 0 to 100 scale, 0 no effect, 100 complete control, read-out: Plant response rating, Blackgrass): 0%
- plant injury at 125 g/ha ([2]; visual injury rating after approximately 10 d, read-out: Wheat plant response rating (0 to 100 scale, 0 no effect, 100 complete control)): 0%
- plant injury at 31 g/ha ([2]; Postemergence, 31 g ai/ha, visual injury after approx. 10 d, 0 to 100 scale, 0 no effect, 100 complete control, read-out: Plant response rating, Wheat): 0%
- pest or weed control at 125 g/ha ([3]; visual injury rating after approximately 10 d, read-out: Galium plant response rating (0 to 100 scale, 0 no effect, 100 complete control)): 0%
- pest or weed control at 31 g/ha ([3]; Postemergence, 31 g ai/ha, visual injury after approx. 10 d, 0 to 100 scale, 0 no effect, 100 complete control, read-out: Plant response rating, Galium): 0%
- pest or weed control at 125 g/ha (Kochia (Kochia scoparia) [4]; visual injury rating after approximately 10 d, read-out: Kochia plant response rating (0 to 100 scale, 0 no effect, 100 complete control)): 0%
- pest or weed control at 31 g/ha (Kochia (Kochia scoparia) [4]; Postemergence, 31 g ai/ha, visual injury after approx. 10 d, 0 to 100 scale, 0 no effect, 100 complete control, read-out: Plant response rating, Kochia): 0%
- plant injury at 125 g/ha (corn (Zea mays); 125 g ai/ha, postemergence, visual injury rating after approximately 10 d, read-out: Corn plant response rating (0 to 100 scale, 0 no effect, 100 complete control)): 0%
- Corn plant response rating (crop injury, 0 = no effect, 100 = complete kill) at 31 g/ha (corn (Zea mays); Postemergence, 31 g ai/ha, visual injury after approx. 10 d, 0 to 100 scale, 0 no effect, 100 complete control): 0%
- pest or weed control at 125 g/ha ([5]; visual injury rating after approximately 10 d, read-out: Foxtail, Giant plant response rating (0 to 100 scale, 0 no effect, 100 complete control)): 0%
- pest or weed control at 31 g/ha ([5]; Postemergence, 31 g ai/ha, visual injury after approx. 10 d, 0 to 100 scale, 0 no effect, 100 complete control, read-out: Plant response rating, Foxtail, Giant): 0%
- pest or weed control at 125 g/ha ([6]; visual injury rating after approximately 10 d, read-out: Pigweed plant response rating (0 to 100 scale, 0 no effect, 100 complete control)): 0%
- pest or weed control at 31 g/ha ([6]; Postemergence, 31 g ai/ha, visual injury after approx. 10 d, 0 to 100 scale, 0 no effect, 100 complete control, read-out: Plant response rating, Pigweed): 0%
- pest or weed control at 125 g/ha ([7]; visual injury rating after approximately 10 d, read-out: Ragweed plant response rating (0 to 100 scale, 0 no effect, 100 complete control)): 0%
- pest or weed control at 31 g/ha ([7]; Postemergence, 31 g ai/ha, visual injury after approx. 10 d, 0 to 100 scale, 0 no effect, 100 complete control, read-out: Plant response rating, Ragweed): 0%
- pest or weed control at 125 g/ha ([8]; visual injury rating after approximately 10 d, read-out: Barnyardgrass plant response rating (0 to 100 scale, 0 no effect, 100 complete control)): 0%
- pest or weed control at 31 g/ha ([8]; Postemergence, 31 g ai/ha, visual injury after approx. 10 d, 0 to 100 scale, 0 no effect, 100 complete control, read-out: Plant response rating, Barnyardgrass): 0%
- pest or weed control at 125 g/ha (Kochia (Kochia scoparia) [9]; preemergence): 0%
- pest or weed control at 31 g/ha (Kochia (Kochia scoparia) [9]; [15]): 0%
- pest or weed control at 125 g/ha ([10]; preemergence): 20%
- pest or weed control at 31 g/ha [10, 15]: 0%
- pest or weed control at 125 g/ha ([11]; preemergence): 0%
- pest or weed control at 31 g/ha [11, 15]: 0%
- pest or weed control at 125 g/ha ([12]; preemergence): 0%
- pest or weed control at 31 g/ha [12, 15]: 0%
- pest or weed control at 125 g/ha ([13]; preemergence): 0%
- pest or weed control at 31 g/ha [13, 15]: 0%
- pest or weed control at 125 g/ha ([14]; preemergence): 90%
- pest or weed control at 31 g/ha [14, 15]: 90%

Structure (SMILES): O=C1NC[C@H](c2csc3ccccc23)[C@H]1C(=O)Nc1ccccc1F [Compound 750]
- pest or weed control at 125 g/ha ([1]; visual injury after approximately 10 d, 0 to 100 scale (0 no effect, 100 complete control), read-out: Plant response rating, Blackgrass): 0%
- plant injury at 125 g/ha ([2]; visual injury after approximately 10 d, 0 to 100 scale (0 no effect, 100 complete control), read-out: Plant response rating, Wheat): 0%
- pest or weed control at 125 g/ha ([3]; visual injury after approximately 10 d, 0 to 100 scale (0 no effect, 100 complete control), read-out: Plant response rating, Galium): 0%
- pest or weed control at 125 g/ha (Kochia (Kochia scoparia) [4]; visual injury after approximately 10 d, 0 to 100 scale (0 no effect, 100 complete control), read-out: Plant response rating, Kochia): 0%
- Corn plant response rating (crop injury, 0 = no effect, 100 = complete kill) at 125 g/ha (corn (Zea mays); 125 g ai/ha, postemergence, visual injury after approximately 10 d, 0 to 100 scale (0 no effect, 100 complete control)): 0%
- pest or weed control at 125 g/ha ([5]; visual injury after approximately 10 d, 0 to 100 scale (0 no effect, 100 complete control), read-out: Plant response rating, Foxtail, Giant): 20%
- pest or weed control at 125 g/ha ([6]; visual injury after approximately 10 d, 0 to 100 scale (0 no effect, 100 complete control), read-out: Plant response rating, Pigweed): 0%
- pest or weed control at 125 g/ha ([7]; visual injury after approximately 10 d, 0 to 100 scale (0 no effect, 100 complete control), read-out: Plant response rating, Ragweed): 0%
- pest or weed control at 125 g/ha ([8]; visual injury after approximately 10 d, 0 to 100 scale (0 no effect, 100 complete control), read-out: Plant response rating, Barnyardgrass): 70%
- pest or weed control at 125 g/ha (Kochia (Kochia scoparia) [9]; preemergence): 0%
- pest or weed control at 500 g/ha (Kochia (Kochia scoparia) [9]; [16]): 0%
- pest or weed control at 125 g/ha ([10]; preemergence): 50%
- pest or weed control at 500 g/ha [10, 16]: 90%
- pest or weed control at 125 g/ha ([11]; preemergence): 0%
- pest or weed control at 500 g/ha [11, 16]: 0%
- pest or weed control at 125 g/ha ([12]; preemergence): 0%
- pest or weed control at 500 g/ha [12, 16]: 0%
- pest or weed control at 125 g/ha ([13]; preemergence): 0%
- pest or weed control at 500 g/ha [13, 16]: 20%
- pest or weed control at 125 g/ha ([14]; preemergence): 80%
- pest or weed control at 500 g/ha [14, 16]: 90%
